Experimental data reported in patent US8367687B2, “Pyrazole derivatives” (Novartis AG, priority 2007, dated 2013).
Like-named read-outs stand apart in the source and are kept apart here.

Columns and labels:
CDK4 = CDK4 (Homo sapiens, UniProt P11802); assay: CDK4 HTRF; type: biochemical
CDK2 cyA = CDK2 cyA (Homo sapiens, UniProt P24941); assay: CDK2 cyA IMAP; type: biochemical
hCDK1/B = hCDK1/B (Homo sapiens, UniProt P06493); assay: hCDK1/B; type: biochemical
p-pRb/S780 = p-pRb/S780 ELISA Cellular Assay (CDK4 ELISA assay); type: cell-based; settings: cells treated for 24 hrs
Protocol: Biological Activity p-pRb/S780 ELISA Cellular Assay
Maxisorp plates (Nunc 442404) are coated with 50 ul of 1 ug/mL total phospholated Retinoblast Protein (pRb) antibody (4H1 Cell Signaling 9309L) diluted in DPBS (Phosphate Buffered Saline) overnight at 4° C. The next day plates are blocked with Superblock in TBST (Pierce 37535) for one hour to overnight—changing block once during that time. Cells are plated at 50-60% confluency in a 96 well plate (Corning 3585) in 100 uL complete media (media containing fetal bovine serum (Gibco 1600-044), 2 mM L-Glutamine (Gibco 25030), and 1% Penicillin/Streptomycin (Gibco 15140-122) and grown overnight in a humidified chamber at 37° C. and 5% CO2. Compounds (in DMSO) are diluted in media to create a 7 point dilution series of compound with concentrations ranging from 110 uM to 0.027 uM. 10 ul of the diluted compounds are added to the cells, with final concentrations on cells ranging from 10 uM to 0.002 uM. Cells are treated for 24 hrs in a humidified chamber at 37° C. and 5% CO2. Following compound incubation, cells are lysed with 40 uL/well lysis buffer (50 mM Tris-HCL pH 7.5 (Invitrogen 15567-027), 120 mM NaCl (Promega V4221), 1 mM EDTA (Gibco 15575-038), 6 mM EGTA (Fisher 02783-100), 1% Nonidet P40 (Fluka R02771). Plates are placed on Titerplate shaker (Labline model 4625) for 5 minutes at 4° C. to lyse cells. After lysis, 10 ul of cell lysate and 50 ul 1×PBS/10% Superblock (Gibco 10010 and Pierce 37535) is added to each well of the precoated and blocked Maxisorp plate and allowed to bind at room temperature for 2 hours on Oribtron Rotator II (Boekel Industries Model 260250). Plates are then washed 3× with 1×TBST (Teknova T9201) using Biotek platewasher equipped with a Biostack. The final wash is not aspirated. The final wash is removed by flicking off and tapping plate on paper towels. ppRbS780 antibody (Cell Signaling 9307L) is diluted 1:1000 in 1×PBS/10% Superblock (Gibco 10010 and Pierce 37535) and 50 ul is added to each well. Plates are then incubated 1 hour on Oribtron Rotator II (Boekel Industries Model 260250). Plates are then washed as previously described. Goat anti-rabbit HRP (Promega W401B) is diluted 1:2500 1×PBS/10% Superblock (Gibco 10010 and Pierce 37535) and 50 ul is added to each well. Plates are then incubated 30 minutes on Oribtron Rotator II. Plates are then washed as previously described. 50 uL Ultra TMB ELISA (Pierce 34028) is then added to each well. Plates are incubated 5-20 minutes until blue color develops. 50 ul 2M Sulfuric acid (Mallinckrodt 2468-46) is then added to each well to stop the reaction. Absorbance at 450 nm for each plate is read on Spectramax Plus (Molecular Devices).

[1] = Table 2, read-out: CDK4 HTRF/ IC50
[2] = Table 2, read-out: CDK2cyA IMAP/ IC50
[3] = Table 2, read-out: p_pRb Cap EL/ IC50_ppRbinh
[4] = Table 1, read-out: CDK2 cyA IMAP
[5] = Table 1, read-out: CDK4 ELISA assay IC50

Sequence of hCDK1/B (P06493 whole entry): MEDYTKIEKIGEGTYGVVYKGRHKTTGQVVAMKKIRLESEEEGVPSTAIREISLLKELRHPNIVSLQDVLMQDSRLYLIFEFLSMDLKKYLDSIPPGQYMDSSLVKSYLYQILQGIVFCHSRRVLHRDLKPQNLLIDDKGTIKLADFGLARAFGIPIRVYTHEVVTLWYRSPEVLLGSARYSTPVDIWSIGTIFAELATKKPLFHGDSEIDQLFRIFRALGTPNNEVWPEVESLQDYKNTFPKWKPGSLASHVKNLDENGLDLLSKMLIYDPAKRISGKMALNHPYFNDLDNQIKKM
Sequence of hCDK1/B (P14635 whole entry partner): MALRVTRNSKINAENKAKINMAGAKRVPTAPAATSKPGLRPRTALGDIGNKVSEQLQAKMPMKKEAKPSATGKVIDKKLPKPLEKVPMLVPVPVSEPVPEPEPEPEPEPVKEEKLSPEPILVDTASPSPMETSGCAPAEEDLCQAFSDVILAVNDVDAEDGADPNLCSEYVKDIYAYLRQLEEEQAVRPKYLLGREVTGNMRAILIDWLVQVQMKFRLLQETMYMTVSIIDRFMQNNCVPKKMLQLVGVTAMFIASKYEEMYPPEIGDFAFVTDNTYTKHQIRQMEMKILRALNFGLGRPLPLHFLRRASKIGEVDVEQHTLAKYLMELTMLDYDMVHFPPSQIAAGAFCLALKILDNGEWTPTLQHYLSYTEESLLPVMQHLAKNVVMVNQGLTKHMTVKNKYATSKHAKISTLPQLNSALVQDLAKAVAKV
Sequence of CDK4 (P11802 whole entry): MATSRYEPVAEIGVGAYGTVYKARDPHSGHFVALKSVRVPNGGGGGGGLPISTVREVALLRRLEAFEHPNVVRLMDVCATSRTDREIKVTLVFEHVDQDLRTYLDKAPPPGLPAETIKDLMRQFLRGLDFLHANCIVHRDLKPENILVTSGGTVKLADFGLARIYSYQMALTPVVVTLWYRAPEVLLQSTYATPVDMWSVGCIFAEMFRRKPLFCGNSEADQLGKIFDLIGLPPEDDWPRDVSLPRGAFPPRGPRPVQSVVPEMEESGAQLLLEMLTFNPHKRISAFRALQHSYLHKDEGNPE
Sequence of CDK4 (P24385 whole entry partner): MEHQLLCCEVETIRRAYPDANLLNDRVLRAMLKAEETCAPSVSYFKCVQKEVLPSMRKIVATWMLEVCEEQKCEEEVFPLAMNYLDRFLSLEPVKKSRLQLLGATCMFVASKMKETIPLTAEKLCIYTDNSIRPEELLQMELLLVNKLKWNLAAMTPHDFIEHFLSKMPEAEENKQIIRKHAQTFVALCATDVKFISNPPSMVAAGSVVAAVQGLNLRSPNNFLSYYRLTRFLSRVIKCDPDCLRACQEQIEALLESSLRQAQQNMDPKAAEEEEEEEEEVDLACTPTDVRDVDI

| Compound | IC50 (CDK4; [1]) [µM] | IC50 (CDK2 cyA; [2]) [µM] | IC50 (hCDK1/B; Table 2) [µM] | IC50 (p-pRb/S780; [3]) [µM] | IC50 (CDK4; Table 1, read-out: CDK4 HTRF) [µM] | IC50 (CDK2 cyA; [4]) [µM] | IC50 (hCDK1/B; Table 1) [µM] | IC50 (p-pRb/S780; [5]) [µM] |
| --- | --- | --- | --- | --- | --- | --- | --- | --- |
| COc1cccc(CNc2nccc(-c3c[nH]nc3C)n2)c1 [Example 107] | < 10 | ≥ 15 | ≥ 15 | < 15 | – | – | – | – |
| Cc1n[nH]cc1-c1ccnc(NCCN2CCCCC2)n1 [Example 111] | < 10 | ≥ 15 | ≥ 15 | < 15 | – | – | – | – |
| CC(C)c1[nH]ncc1-c1ccnc(NCCN2CCCC2)c1 [Example 17] | – | – | – | – | < 5 | ≥ 15 | ≥ 15 | < 15 |
| CC(C)c1n[nH]cc1-c1ccnc(NC2CN3CCC2CC3)n1 (stereo not drawn) [Example 159] | < 0.05 | < 5 | < 0.5 | < 5 | – | – | – | – |
| CC(=O)NCCNc1nccc(-c2c[nH]nc2C)n1 [Example 123] | < 5 | < 15 | < 15 | < 15 | – | – | – | – |
| Cc1n[nH]cc1-c1ccnc(NCCN2CCCC2)n1 [Example 109] | < 10 | ≥ 15 | ≥ 15 | < 15 | – | – | – | – |
| Cc1n[nH]cc1-c1ccnc(NCc2ccccc2)n1 [Example 93] | < 5 | < 15 | < 10 | < 15 | – | – | – | – |
| CC(C)c1[nH]ncc1-c1ccnc(NCCOc2ccccc2)c1 [Example 21] | – | – | – | – | < 5 | < 10 | < 10 | < 15 |
| Cc1n[nH]cc1-c1ccnc(NCC(=O)OC(C)(C)C)n1 [Example 129] | < 15 | ≥ 15 | ≥ 15 | < 15 | – | – | – | – |
| Cc1ccccc1CNc1cc(-c2cn[nH]c2C2CCCCCC2)ccn1 [Example 66] | – | – | – | – | < 5 | < 10 | < 10 | < 15 |
| Cc1n[nH]cc1-c1ccnc(NCc2ccc(F)cc2)n1 [Example 95] | < 5 | < 10 | < 10 | < 15 | – | – | – | – |
| Cc1n[nH]cc1-c1ccnc(NCc2ccncc2)n1 [Example 104] | < 5 | < 15 | < 15 | < 15 | – | – | – | – |
| Cc1n[nH]cc1-c1ccnc(NCc2ccco2)n1 [Example 122] | < 10 | ≥ 15 | ≥ 15 | < 15 | – | – | – | – |
| Cc1cc(C)cc(CNc2nccc(-c3c[nH]nc3C)n2)c1 [Example 134] | < 5 | ≥ 15 | ≥ 15 | < 15 | – | – | – | – |
| COc1ccc(CNc2nccc(-c3c[nH]nc3C)n2)cc1 [Example 100] | < 5 | < 15 | < 15 | < 15 | – | – | – | – |
| Cc1n[nH]cc1-c1ccnc(NCc2ccc3c(c2)OCO3)n1 [Example 102] | < 5 | < 10 | < 10 | < 15 | – | – | – | – |
| CC(C)c1n[nH]cc1-c1ccnc(NC2CCCCC2C)n1 (stereo not drawn) [Example 160] | < 0.1 | < 1 | < 0.5 | < 5 | – | – | – | – |
| Cc1n[nH]cc1-c1ccnc(NCC2CCCCC2)n1 [Example 103] | < 5 | < 10 | < 10 | < 15 | – | – | – | – |
| Cc1n[nH]cc1-c1ccnc(NCCCN(C)C)n1 [Example 118] | < 15 | ≥ 15 | ≥ 15 | < 15 | – | – | – | – |
| CC(C)c1[nH]ncc1-c1ccnc(NCc2ccncc2)c1 [Example 22] | – | – | – | – | < 5 | < 5 | < 5 | < 0.5 |
| CC(C)c1n[nH]cc1-c1ccnc(NC2CCN(C)CC2)n1 [Example 139] | < 0.05 | < 1 | < 0.5 | < 5 | – | – | – | – |
| CC(C)c1n[nH]cc1-c1ccnc(NCCN(C(C)C)C(C)C)n1 [Example 146] | < 5 | ≥ 15 | < 5 | < 15 | – | – | – | – |
| Cc1n[nH]cc1-c1ccnc(NC2CCC2)n1 [Example 101] | < 1 | < 5 | < 5 | < 15 | – | – | – | – |
| CC(C)c1n[nH]cc1-c1ccnc(N[C@@H]2CCc3ccccc32)n1 [Example 176, (R)-Indan-1-yl-[4-(3-isopropyl-1H-pyrazol-4-yl)-pyrimidin-2-yl]-amine] | < 0.05 | < 0.5 | < 0.5 | < 1 | – | – | – | – |
| CC(C)c1n[nH]cc1-c1ccnc(NC2CCc3ccccc32)n1 (stereo not drawn) [Example 174] | < 0.05 | < 1 | < 1 | < 5 | – | – | – | – |
| Cc1n[nH]cc1-c1ccnc(NCCc2c[nH]c3ccccc23)n1 [Example 116] | < 5 | < 10 | < 5 | < 15 | – | – | – | – |
| CC(C)c1n[nH]cc1-c1ccnc(NC2CCc3cc(F)ccc32)n1 (stereo not drawn) [Example 189] | < 0.1 | < 0.5 | < 0.5 | < 1 | – | – | – | – |
| Cc1n[nH]cc1-c1ccnc(NCc2ccccn2)n1 [Example 126] | < 15 | ≥ 15 | ≥ 15 | < 15 | – | – | – | – |
| CC(C)c1n[nH]cc1-c1ccnc(NC2CCC(C)(C)c3ccccc32)n1 (stereo not drawn) [Example 188] | < 0.1 | ≥ 15 | ≥ 15 | < 5 | – | – | – | – |
| CC(C)c1[nH]ncc1-c1ccnc(NCC2CCNCC2)c1 [Example 47] | – | – | – | – | < 10 | ≥ 15 | ≥ 15 | < 15 |
